Data on 9 molecules can be found in patent US6423689B1, “Peptidyl calcium channel blockers” (Warner-Lambert Company, priority 1997, dated 2002).

SMILES strings stand for the structures. Like-named read-outs stand apart in the source and are kept apart here.

Series [1] has as its system Na+ channels in superior cervical ganglion (SCG) neurons. The series can be described thus: Whole-cell voltage clamp, Na+ current in SCG neurons. It counts as cell-based, rat. The method in brief: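 Acutely dissociated (trypsin) SCG neurons under whole-cell voltage clamp, external NaCl/KCl/HEPES buffer pH 7.4, K-gluconate/KCl pipette. From holding potential −65 to −55 mV, 35 msec steps every 10 sec to 0 mV (peak Na+ current) or +50 mV (sustained K+ current); compounds perfused locally to steady-state block, reported as percent inhibition of control.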

Series [2] deals with T1, N-type Ca2+ channels in IMR-32 cells (Homo sapiens, UniProt Q00975).
T1 construct: host or cells: IMR-32 cells, differentiated with dibutyryl cAMP and bromodeoxyuridine
T1 sequence (Q00975 whole entry): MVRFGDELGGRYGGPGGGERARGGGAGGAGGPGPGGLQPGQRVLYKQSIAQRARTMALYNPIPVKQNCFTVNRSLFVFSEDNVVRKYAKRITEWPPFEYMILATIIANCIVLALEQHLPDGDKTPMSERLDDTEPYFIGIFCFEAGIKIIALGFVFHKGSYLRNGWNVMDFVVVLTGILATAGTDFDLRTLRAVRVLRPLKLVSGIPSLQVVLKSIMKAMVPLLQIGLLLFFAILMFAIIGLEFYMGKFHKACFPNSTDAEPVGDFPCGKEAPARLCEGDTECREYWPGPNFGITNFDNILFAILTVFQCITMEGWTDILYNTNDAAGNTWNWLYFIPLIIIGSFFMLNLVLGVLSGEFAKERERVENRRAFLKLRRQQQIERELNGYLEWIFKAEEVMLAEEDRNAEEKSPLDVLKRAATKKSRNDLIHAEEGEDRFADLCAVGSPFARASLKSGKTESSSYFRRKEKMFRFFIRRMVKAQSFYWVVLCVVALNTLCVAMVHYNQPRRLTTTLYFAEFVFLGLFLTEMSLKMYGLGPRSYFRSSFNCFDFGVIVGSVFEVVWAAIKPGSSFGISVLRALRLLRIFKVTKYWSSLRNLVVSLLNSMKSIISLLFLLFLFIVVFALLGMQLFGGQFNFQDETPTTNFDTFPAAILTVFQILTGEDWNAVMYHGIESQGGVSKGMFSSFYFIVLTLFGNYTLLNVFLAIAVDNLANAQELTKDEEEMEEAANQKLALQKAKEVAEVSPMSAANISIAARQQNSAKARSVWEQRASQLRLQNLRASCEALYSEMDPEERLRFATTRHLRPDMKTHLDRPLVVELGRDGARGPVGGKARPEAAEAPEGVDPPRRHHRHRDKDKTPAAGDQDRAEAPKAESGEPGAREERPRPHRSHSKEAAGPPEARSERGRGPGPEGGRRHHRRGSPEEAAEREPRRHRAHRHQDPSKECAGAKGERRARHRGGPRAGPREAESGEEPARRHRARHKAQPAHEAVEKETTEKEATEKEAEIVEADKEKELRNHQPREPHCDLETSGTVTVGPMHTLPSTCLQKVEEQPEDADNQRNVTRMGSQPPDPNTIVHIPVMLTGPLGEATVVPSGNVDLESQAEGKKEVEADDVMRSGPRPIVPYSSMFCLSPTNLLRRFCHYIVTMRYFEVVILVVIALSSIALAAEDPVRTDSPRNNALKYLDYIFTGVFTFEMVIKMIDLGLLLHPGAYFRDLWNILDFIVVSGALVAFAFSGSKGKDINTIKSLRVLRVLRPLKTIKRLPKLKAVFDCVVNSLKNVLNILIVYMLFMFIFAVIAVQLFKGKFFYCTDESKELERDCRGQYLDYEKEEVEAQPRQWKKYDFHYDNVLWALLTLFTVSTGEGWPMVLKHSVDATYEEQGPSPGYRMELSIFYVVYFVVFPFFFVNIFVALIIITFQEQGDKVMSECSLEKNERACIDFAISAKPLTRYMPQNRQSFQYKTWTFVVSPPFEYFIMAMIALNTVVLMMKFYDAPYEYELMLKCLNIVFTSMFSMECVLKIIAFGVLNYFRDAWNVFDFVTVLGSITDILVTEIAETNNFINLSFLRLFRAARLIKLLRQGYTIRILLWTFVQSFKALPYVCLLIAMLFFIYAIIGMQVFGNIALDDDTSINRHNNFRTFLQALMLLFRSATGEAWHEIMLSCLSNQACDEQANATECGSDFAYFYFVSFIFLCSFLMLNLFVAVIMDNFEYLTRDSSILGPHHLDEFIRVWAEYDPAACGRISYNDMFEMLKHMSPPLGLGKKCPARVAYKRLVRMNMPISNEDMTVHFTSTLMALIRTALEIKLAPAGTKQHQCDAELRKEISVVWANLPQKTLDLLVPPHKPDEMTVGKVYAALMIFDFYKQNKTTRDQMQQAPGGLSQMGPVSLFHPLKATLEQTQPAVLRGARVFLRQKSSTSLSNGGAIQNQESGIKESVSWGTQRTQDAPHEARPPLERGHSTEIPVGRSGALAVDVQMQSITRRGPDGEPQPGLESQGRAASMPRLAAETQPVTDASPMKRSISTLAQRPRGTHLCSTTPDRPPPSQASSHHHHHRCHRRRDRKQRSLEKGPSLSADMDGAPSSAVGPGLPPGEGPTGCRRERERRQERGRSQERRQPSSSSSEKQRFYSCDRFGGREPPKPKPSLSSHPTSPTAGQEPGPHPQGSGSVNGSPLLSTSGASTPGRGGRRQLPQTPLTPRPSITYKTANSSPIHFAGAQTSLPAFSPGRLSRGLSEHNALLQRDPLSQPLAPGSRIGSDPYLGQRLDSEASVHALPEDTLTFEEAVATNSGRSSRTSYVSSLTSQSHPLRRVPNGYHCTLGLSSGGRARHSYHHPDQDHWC
T1 sequence (P54289 25-956 partner limits assumed): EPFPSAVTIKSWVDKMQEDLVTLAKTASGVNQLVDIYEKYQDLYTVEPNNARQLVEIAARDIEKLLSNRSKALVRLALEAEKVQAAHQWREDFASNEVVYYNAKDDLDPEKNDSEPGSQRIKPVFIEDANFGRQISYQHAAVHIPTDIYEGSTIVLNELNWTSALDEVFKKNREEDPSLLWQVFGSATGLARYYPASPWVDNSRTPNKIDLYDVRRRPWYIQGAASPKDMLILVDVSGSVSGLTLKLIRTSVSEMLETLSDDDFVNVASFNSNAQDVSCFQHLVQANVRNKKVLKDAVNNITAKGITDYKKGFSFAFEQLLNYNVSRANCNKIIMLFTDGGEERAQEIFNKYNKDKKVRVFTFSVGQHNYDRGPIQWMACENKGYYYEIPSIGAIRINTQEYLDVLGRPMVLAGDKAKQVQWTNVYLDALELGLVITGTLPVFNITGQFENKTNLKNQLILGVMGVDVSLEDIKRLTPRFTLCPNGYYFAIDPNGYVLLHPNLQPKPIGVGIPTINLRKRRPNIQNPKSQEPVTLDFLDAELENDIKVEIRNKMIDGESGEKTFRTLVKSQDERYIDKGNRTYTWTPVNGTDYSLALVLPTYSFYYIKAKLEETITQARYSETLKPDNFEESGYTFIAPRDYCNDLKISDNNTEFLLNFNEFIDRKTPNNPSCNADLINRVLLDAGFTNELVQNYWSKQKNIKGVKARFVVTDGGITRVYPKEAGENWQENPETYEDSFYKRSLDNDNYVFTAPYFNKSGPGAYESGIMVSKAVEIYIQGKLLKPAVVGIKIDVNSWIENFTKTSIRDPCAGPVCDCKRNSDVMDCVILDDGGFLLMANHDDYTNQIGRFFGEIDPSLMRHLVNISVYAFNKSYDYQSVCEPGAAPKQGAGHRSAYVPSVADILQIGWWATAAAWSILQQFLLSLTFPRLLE
T1 sequence (P54289 957-1103 partner limits assumed): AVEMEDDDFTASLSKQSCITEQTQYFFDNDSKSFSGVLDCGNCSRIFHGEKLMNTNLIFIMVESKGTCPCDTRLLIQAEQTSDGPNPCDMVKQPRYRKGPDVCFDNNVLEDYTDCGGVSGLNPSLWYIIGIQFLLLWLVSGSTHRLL
T1 sequence (P54284 whole entry partner): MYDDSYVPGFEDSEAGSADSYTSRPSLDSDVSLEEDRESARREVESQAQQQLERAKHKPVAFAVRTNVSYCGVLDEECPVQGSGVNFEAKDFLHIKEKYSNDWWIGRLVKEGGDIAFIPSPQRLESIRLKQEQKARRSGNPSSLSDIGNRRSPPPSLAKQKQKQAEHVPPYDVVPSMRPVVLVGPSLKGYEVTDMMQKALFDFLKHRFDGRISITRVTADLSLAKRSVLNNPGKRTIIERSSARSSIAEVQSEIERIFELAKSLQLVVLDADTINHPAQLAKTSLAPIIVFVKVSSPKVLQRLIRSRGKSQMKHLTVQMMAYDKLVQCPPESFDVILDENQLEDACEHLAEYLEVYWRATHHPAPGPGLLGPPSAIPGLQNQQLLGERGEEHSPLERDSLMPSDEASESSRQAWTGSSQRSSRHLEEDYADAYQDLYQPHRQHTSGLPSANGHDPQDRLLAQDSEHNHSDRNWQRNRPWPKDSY
Kind of series: Inhibition of N-type calcium flux in IMR-32 cells (Indo-1 fluorescence, nitrendipine present). The following applies: for IC50: IMR-32 cells, 5 μM nitrendipine, K+ depolarization; for inhibition at 1 µM / inhibition at 10 µM: IMR-32. In kind it is cell-based. The method in brief: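 Differentiated IMR-32 cells (7–13 days) were loaded with 5 μM Indo-1 AM, preincubated with compound for 10 min at 30° C, and depolarized with KCl/CaCl2 stimulation solution, with 5 μM nitrendipine blocking L-channels. Peak-minus-basal 400/490 nm emission ratio was plotted against drug concentration, and IC50 came from four-parameter logistic fits.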
For orientation: Calcium assays in cells follow changes in intracellular calcium, usually with a dye or a luminescent sensor.

The next series has as its system DBA/2 mice. Kind of series: animal or person. In kind it is in vivo. The following applies: for responders at 10 mg/kg / responders at 30 mg/kg / responders at 100 mg/kg: Mus musculus, iv, read-out: Number of Mice Protected from Tonic Convulsions. As to the method: Audiogenic Seizure Model in DBA/2 Mice
In Vivo Biological Protocol
A compound of the present invention was dissolved in water using 10% (weight/volume) Emulphor (GAF Cop., Wayne N.J. surfactant. Substances were administered by intravenous injection the retro-orbital venous sinus. […] All the male mice, 3-4 weeks old were obtained from Jackson Laboratories Bar Harbour, Me. Immediately before anticonvulsant testing, mice were placed upon a wire mesh, 4 inches square suspended from a steel rod. The square was slowly inverted through 180 degree and mice observed for 30 seconds. Any mouse falling from the wire mesh was scored as ataxia.
Mice were placed into an enclosed acrylic plastic chamber (21 cm in height, approximately 30 cm diameter) with a high-frequency speaker (4 cm diameter) in the center of the top lid. An audio signal generator (Protek model B-810) was used to produce a continuous sinusoidal tone that was swept linearly in frequency between 8 kHz and 16 kHz once each 10 msec. The average sound pressure level (SPL) during stimulation was approximately 100 dB at the floor of the chamber. Mice were placed within the chamber and allowed to acclimatize for 1 minute. DBA/2 mice in the vehicle-treated group responded to the sound stimulus (applied until tonic extension occurred, or for a maximum of 60 sec) with a characteristic seizure sequence consisting of wild running followed by clonic seizures, and later by tonic extension, and finally by respiratory arrest and death in 80% or more of the mice. In vehicle-treated mice, the entire sequence of seizures to respiratory arrest lasts approximately 15-20 seconds.
The incidence of all the seizure phases in the drug-treated and vehicle-treated mice was recorded, and the occurrence of tonic seizures were used for calculating anticonvulsant ED50 values by probit analysis. Mice were used only once for testing at each time and dose point.

`CC(C)(C)OC(=O)[C@H](Cc1ccc(OCc2ccccc2)cc1)NC(=O)CNC(=O)N1CCCCCC1` (stereo in doubt) [Example 8, [S-(R*,R*)]-2-{2-[(Azepane-1-carbonyl)-amino]-acetylamino}-3-(4-benzyloxy-phenyl)-propionic acid tert-butyl ester]: the “Inhibition of Na+ Current, % Inhibition at 10 μM” value in series [1] worked out at 43%. For the same molecule, the “Inhibition of Calcium Flux in IMR-32 Cells % Inhibition at 1 μM” value in series [2] (1 μM) is given as 29%. Moreover, the “Inhibition of Calcium Flux in IMR-32 Cells % Inhibition at 10 μM” value in series [2] (10 μM) is 86%. Moreover, the concentration for half-maximal inhibition (IC50) in series [2] was 2.4 µM. For the same molecule, in the series with DBA/2 mice (30 mg/Kg iv, 15 min post treatment), the “Number of Mice Protected from Tonic Convulsions” value is on record as 4/5.

Regarding `CC(C)C[C@H](NC(=O)N1CCCCCC1)C(=O)N[C@@H](Cc1ccc(OCc2ccccc2)cc1)C(=O)OC(C)(C)C` [Example 1], the “Inhibition of Na+ Current, % Inhibition at 10 μM” value in series [1] was 28%. Also, in series [1] (read-out: Inhibition of Na+ Current IC50), the 50% inhibitory concentration (IC50) amounted to 14 µM. Moreover, in series [2], the inhibition at 1 µM was determined as 71%, the inhibition at 10 µM is 95% and the IC50 came out at 0.35 µM. Further, in the series with DBA/2 mice (0.25 h), the responders at 10 mg/kg is 0%, the responders at 30 mg/kg is 100% and the responders at 100 mg/kg was 100%. Moreover, the responders at 100 mg/kg in the series on DBA/2 mice (0.5 h) was 100%. In addition, the responders at 10 mg/kg in the series on DBA/2 mice (0.75 h) stood at 0%. The responders at 100 mg/kg in the series with DBA/2 mice (1 h) stood at 0%.

On to `CC(C)(C)OC(=O)[C@H](Cc1ccc(OCc2ccccc2)cc1)NC(=O)[C@H](Cc1ccccc1)NC(=O)N1CCCCCC1` [Example 16], for which, in series [1], the “Inhibition of Na+ Current, % Inhibition at 10 μM” value came to 38%. Moreover, in series [2], the inhibition at 1 µM worked out at 44%, the inhibition at 10 µM amounted to 92% and the IC50 came out at 1.1 µM.

In the case of `CC(C)C[C@H](NC(=O)N1CCCCCC1)C(=O)N[C@@H](Cc1ccc(OCc2ccccc2)cc1)C(N)=O` [Example 21, [S-(R*,R*)]-Azepane-1-carboxylic acid {1-[2-(4-benzyloxy-phenyl)-1-carbamoyl-ethylcarbamoyl]-3-methyl-butyl}-amide], the “Inhibition of Na+ Current, % Inhibition at 10 μM” value in series [1] amounted to 16%. In series [2], the inhibition at 1 µM was found to be 26%, the inhibition at 10 µM is 83% and the IC50 worked out at 2.7 µM. Besides, the responders at 30 mg/kg with DBA/2 mice (0.75 h) was 0%.

Take `CC(C)C[C@H](NC(=O)N1CCCCCC1)C(=O)N[C@@H](Cc1ccc(OCc2ccccn2)cc1)C(=O)OC(C)(C)C` [Example 25, [S-(R*,R*)]-2-{2-[(Azepane-1-carbonyl)-amino]-4-methyl-pentanoylamino}-3-[4-(pyridin-2-ylmethoxy)-phenyl]-propionic acid tert-butyl ester]: the “Inhibition of Na+ Current, % Inhibition at 10 μM” value in series [1] is on record as 16%. In series [2], the inhibition at 1 µM worked out at 32%, the inhibition at 10 µM was found to be 82% and the half-maximal inhibitory concentration (IC50) worked out at 2.09 µM. In addition, the responders at 30 mg/kg in the series with DBA/2 mice (0.25 h) was 100%.

With `CC(C)C[C@H](NC(=O)N1CCCCCC1)C(=O)N[C@@H](Cc1ccc(OCc2ccncc2)cc1)C(=O)OC(C)(C)C` [Example 26, [S-(R*,R*)]-2-{2-[(Azepane-1-carbonyl)-amino]-4-methyl-pentanoylamino}-3-[4-(pyridin-4-ylmethoxy)-phenyl]-propionic acid tert-butyl ester], in series [1], the “Inhibition of Na+ Current, % Inhibition at 10 μM” value is given as 13%. Also, in series [2], the inhibition at 1 µM was determined as 44%, the inhibition at 10 µM was determined as 84% and the concentration for half-maximal inhibition (IC50) is 1.6 µM. The responders at 10 mg/kg with DBA/2 mice (0.25 h) was 100%.

For the molecule `CC(C)C[C@H](NC(=O)N1CCCCCC1)C(=O)N[C@@H](Cc1ccc(C#CC2(O)CCCCC2)cc1)C(=O)NC(C)(C)C` [Example 138, [S-(R*,R*)]-Azepane-1-carboxylic acid (1-({-tert-butylcarbamoyl-2-[4-(1-hydroxy-cyclohexylethynyl)-phenyl]-ethylcarbamoyl}-3-methyl-butyl)-amide], the melting point lay in the range of 120 to 122 °C. In addition, the “Inhibition of Na+ Current, % Inhibition at 10 μM” value in series [1] is 31%. Further, in series [2], the inhibition at 1 µM was determined as 23% and the inhibition at 10 µM turned out to be 67%.

Consider `CC(C)C[C@H](NC(=O)N1CCCCCC1)C(=O)N[C@@H](Cc1ccc(C=Cc2ccccc2)cc1)C(=O)NC(C)(C)C` [Example 141, [S-(R*,R*)]-Azepane-1-carboxylic acid {1-[1-tert-butylcarbamoyl-2-(4-styryl-phenyl)-ethylcarbamoyl]-3-methyl-butyl}-amide], for which the melting point fell in the range of 95 to 96 °C. For the same molecule, the “Inhibition of Na+ Current, % Inhibition at 10 μM” value in series [1] stood at 18%. For the same molecule, in series [2], the inhibition at 1 µM stood at 37% and the inhibition at 10 µM turned out to be 66%.

Take `CC(C)C[C@H](NC(=O)N1CCCCCC1)C(=O)N[C@@H](Cc1ccc(OCc2ccccc2)cc1)C(=O)NCCCn1ccnc1` [Example 237, [S-(R*,R*)]-Azepane-1-carboxylic acid {(1-[2-(4-benzyloxy phenyl)-1-(3-imidazol-1-yl-propylcarbamoyl)-ethylcarbamoyl]-3-methyl-butyl}-amide]: in series [2], the inhibition at 1 µM came out at 52%, the inhibition at 10 µM was found to be 93% and the 50% inhibitory concentration (IC50) came out at 0.96 µM. For the same molecule, the responders at 30 mg/kg in the series with DBA/2 mice (0.25 h) is 0%.

In general, IC50 refers to the concentration needed to halve the response being measured. In general, inhibition refers to the drop in the measured response relative to a control, in per cent. The melting point is the temperature of the solid-liquid transition.
